± gives the expanded uncertainty stated by the source.
Test: xn = mol fraction of the nth substance listed
Conditions: 101 kPa, Liquid; for speed of sound: Single path-length method

COC(C)(C)C [2-methoxy-2-methylpropane] + CC(C)(C)O
Conditions	mass density [kg/m3]	speed of sound [m/s]
301.65 K, x1 = 0.049	775.452 ± 0.51	1105.4 ± 2.2
301.65 K, x1 = 0.1	772.914 ± 0.52	1100.7 ± 2.2
301.65 K, x1 = 0.215	767.025 ± 0.53	1089.3 ± 2.2
301.65 K, x1 = 0.314	761.986 ± 0.53	1079.7 ± 2.2
301.65 K, x1 = 0.4	757.94 ± 0.54	1072 ± 2.2
301.65 K, x1 = 0.498	753.459 ± 0.55	1063.6 ± 2.2
301.65 K, x1 = 0.597	749.177 ± 0.55	1055.5 ± 2.2
301.65 K, x1 = 0.707	744.495 ± 0.56	1047.6 ± 2.2
301.65 K, x1 = 0.799	740.646 ± 0.56	1040.8 ± 2.2
301.65 K, x1 = 0.9	736.522 ± 0.57	1033.1 ± 2.2
301.65 K, x1 = 0.951	734.553 ± 0.57	1028.8 ± 2.2
301.65 K, x1 = 1	732.643 ± 0.57	1024.3 ± 2.2
303.15 K, x1 = 0.049	772.916 ± 0.51	1094.7 ± 2.1
303.15 K, x1 = 0.1	770.395 ± 0.52	1090.2 ± 2.1
303.15 K, x1 = 0.215	764.529 ± 0.53	1079.1 ± 2.1
303.15 K, x1 = 0.314	759.479 ± 0.53	1069.7 ± 2.1
303.15 K, x1 = 0.4	755.424 ± 0.54	1061.9 ± 2.1
303.15 K, x1 = 0.498	750.928 ± 0.55	1053.1 ± 2.1
303.15 K, x1 = 0.597	746.615 ± 0.55	1045 ± 2.1
303.15 K, x1 = 0.707	741.905 ± 0.56	1036.7 ± 2.1
303.15 K, x1 = 0.799	738.033 ± 0.56	1029.9 ± 2.1
303.15 K, x1 = 0.9	733.889 ± 0.57	1021.9 ± 2.1
303.15 K, x1 = 0.951	731.913 ± 0.57	1017.6 ± 2.1
303.15 K, x1 = 1	729.99 ± 0.57	1012.8 ± 2.1
305.65 K, x1 = 0.049	770.344 ± 0.52	1084 ± 2.1
305.65 K, x1 = 0.1	767.841 ± 0.52	1079.7 ± 2.1
305.65 K, x1 = 0.215	762.002 ± 0.53	1068.7 ± 2.1
305.65 K, x1 = 0.314	756.946 ± 0.54	1059.4 ± 2.1
305.65 K, x1 = 0.4	752.889 ± 0.54	1051.7 ± 2.1
305.65 K, x1 = 0.498	748.373 ± 0.55	1042.6 ± 2.1
305.65 K, x1 = 0.597	744.023 ± 0.56	1034.3 ± 2.1
305.65 K, x1 = 0.707	739.304 ± 0.56	1025.9 ± 2.1
305.65 K, x1 = 0.799	735.393 ± 0.57	1018.7 ± 2.1
305.65 K, x1 = 0.9	731.231 ± 0.57	1010.6 ± 2.1
305.65 K, x1 = 0.951	729.253 ± 0.58	1006.3 ± 2.1
305.65 K, x1 = 1	727.325 ± 0.58	1001.4 ± 2.1
308.15 K, x1 = 0.049	767.747 ± 0.52	1073.2 ± 2.1
308.15 K, x1 = 0.1	765.265 ± 0.52	1069.1 ± 2.1
308.15 K, x1 = 0.215	759.448 ± 0.53	1058.2 ± 2.1
308.15 K, x1 = 0.314	754.398 ± 0.54	1049.1 ± 2.1
308.15 K, x1 = 0.4	750.325 ± 0.55	1041.2 ± 2.1
308.15 K, x1 = 0.498	745.794 ± 0.55	1032 ± 2.1
308.15 K, x1 = 0.597	741.414 ± 0.56	1023.5 ± 2.1
308.15 K, x1 = 0.707	736.686 ± 0.57	1015.2 ± 2.1
308.15 K, x1 = 0.799	732.737 ± 0.57	1007.6 ± 2.1
308.15 K, x1 = 0.9	728.559 ± 0.58	999.39 ± 2.1
308.15 K, x1 = 0.951	726.577 ± 0.58	994.94 ± 2.1
308.15 K, x1 = 1	724.645 ± 0.58	989.9 ± 2.1
310.65 K, x1 = 0.049	765.13 ± 0.52	1062.6 ± 2.1
310.65 K, x1 = 0.1	762.685 ± 0.53	1058.9 ± 2.1
310.65 K, x1 = 0.215	756.88 ± 0.54	1047.9 ± 2.1
310.65 K, x1 = 0.314	751.817 ± 0.54	1038.6 ± 2.1
310.65 K, x1 = 0.4	747.731 ± 0.55	1030.6 ± 2.1
310.65 K, x1 = 0.498	743.186 ± 0.56	1021.4 ± 2.1
310.65 K, x1 = 0.597	738.784 ± 0.56	1012.8 ± 2.1
310.65 K, x1 = 0.707	734.036 ± 0.57	1004.3 ± 2.1
310.65 K, x1 = 0.799	730.062 ± 0.58	996.52 ± 2.1
310.65 K, x1 = 0.9	725.873 ± 0.58	988.12 ± 2.1
310.65 K, x1 = 0.951	723.884 ± 0.58	983.57 ± 2.1
310.65 K, x1 = 1	721.953 ± 0.59	978.47 ± 2.1
313.15 K, x1 = 0.049	762.492 ± 0.53	1052 ± 2.1
313.15 K, x1 = 0.1	760.064 ± 0.53	1048.4 ± 2.1
313.15 K, x1 = 0.215	754.27 ± 0.54	1037.4 ± 2.1
313.15 K, x1 = 0.314	749.212 ± 0.55	1028.2 ± 2.1
313.15 K, x1 = 0.4	745.126 ± 0.55	1020.2 ± 2.1
313.15 K, x1 = 0.498	740.567 ± 0.56	1010.9 ± 2.1
313.15 K, x1 = 0.597	736.13 ± 0.57	1002 ± 2.1
313.15 K, x1 = 0.707	731.36 ± 0.57	993.34 ± 2.1
313.15 K, x1 = 0.799	727.372 ± 0.58	985.44 ± 2.1
313.15 K, x1 = 0.9	723.168 ± 0.59	976.81 ± 2.1
313.15 K, x1 = 0.951	721.205 ± 0.59	972.48 ± 2.1
313.15 K, x1 = 1	719.245 ± 0.59	967.03 ± 2.1
315.65 K, x1 = 0.049	759.831 ± 0.53	1041.5 ± 2.1
315.65 K, x1 = 0.1	757.407 ± 0.54	1037.8 ± 2.1
315.65 K, x1 = 0.215	751.633 ± 0.55	1026.8 ± 2.1
315.65 K, x1 = 0.314	746.577 ± 0.55	1017.7 ± 2.1
315.65 K, x1 = 0.4	742.483 ± 0.56	1009.7 ± 2.1
315.65 K, x1 = 0.498	737.91 ± 0.56	1000.2 ± 2.1
315.65 K, x1 = 0.597	733.459 ± 0.57	991.47 ± 2.1
315.65 K, x1 = 0.707	728.662 ± 0.58	982.37 ± 2.1
315.65 K, x1 = 0.799	724.66 ± 0.58	974.33 ± 2.1
315.65 K, x1 = 0.9	720.449 ± 0.59	965.56 ± 2.1
315.65 K, x1 = 0.951	718.495 ± 0.59	961.27 ± 2.1
315.65 K, x1 = 1	716.525 ± 0.59	955.73 ± 2.1
318.15 K, x1 = 0.049	757.138 ± 0.54	1031 ± 2.1
318.15 K, x1 = 0.1	754.729 ± 0.54	1027.3 ± 2.1
318.15 K, x1 = 0.215	748.972 ± 0.55	1016.3 ± 2.1
318.15 K, x1 = 0.314	743.917 ± 0.56	1007.1 ± 2.1
318.15 K, x1 = 0.4	739.814 ± 0.56	999.06 ± 2.1
318.15 K, x1 = 0.498	735.227 ± 0.57	989.54 ± 2.1
318.15 K, x1 = 0.597	730.762 ± 0.57	980.67 ± 2.1
318.15 K, x1 = 0.707	725.943 ± 0.58	971.38 ± 2.1
318.15 K, x1 = 0.799	721.933 ± 0.59	963.24 ± 2.1
318.15 K, x1 = 0.9	717.738 ± 0.59	954.55 ± 2.1
318.15 K, x1 = 0.951	715.752 ± 0.6	949.91 ± 2.1
318.15 K, x1 = 1	713.786 ± 0.6	944.34 ± 2.1
320.65 K, x1 = 0.049	754.421 ± 0.54	1020.5 ± 2.1
320.65 K, x1 = 0.1	752.024 ± 0.54	1016.8 ± 2.1
320.65 K, x1 = 0.215	746.283 ± 0.55	1005.9 ± 2.1
320.65 K, x1 = 0.314	741.23 ± 0.56	996.62 ± 2.1
320.65 K, x1 = 0.4	737.119 ± 0.57	988.47 ± 2.1
320.65 K, x1 = 0.498	732.517 ± 0.57	978.82 ± 2.1
320.65 K, x1 = 0.597	728.042 ± 0.58	969.8 ± 2.1
320.65 K, x1 = 0.707	723.201 ± 0.59	960.4 ± 2.1
320.65 K, x1 = 0.799	719.199 ± 0.59	952.31 ± 2.1
320.65 K, x1 = 0.9	714.978 ± 0.6	943.3 ± 2.1
320.65 K, x1 = 0.951	712.991 ± 0.6	938.58 ± 2.1
320.65 K, x1 = 1	711.028 ± 0.6	933.01 ± 2.1
323.15 K, x1 = 0.049	751.68 ± 0.55	1010 ± 2.1
323.15 K, x1 = 0.1	749.295 ± 0.55	1006.3 ± 2.1
323.15 K, x1 = 0.215	743.567 ± 0.56	995.37 ± 2.1
323.15 K, x1 = 0.314	738.52 ± 0.56	986.19 ± 2.1
323.15 K, x1 = 0.4	734.4 ± 0.57	977.86 ± 2.1
323.15 K, x1 = 0.498	729.786 ± 0.58	968.08 ± 2.1
323.15 K, x1 = 0.597	725.316 ± 0.58	958.97 ± 2.1
323.15 K, x1 = 0.707	720.436 ± 0.59	949.42 ± 2.1
323.15 K, x1 = 0.799	716.426 ± 0.6	941.22 ± 2.1
323.15 K, x1 = 0.9	712.195 ± 0.6	931.99 ± 2.1
323.15 K, x1 = 0.951	710.215 ± 0.61	927.25 ± 2.1
323.15 K, x1 = 1	708.28 ± 0.61	921.93 ± 2.1

From the NIST ThermoML archive (doi:10.1007/s10765-007-0223-x)
